The results in this text go back to US20230270832A1, “MAGEA1 IMMUNOGENIC PEPTIDES, BINDING PROTEINS RECOGNIZING MAGEA1 IMMUNOGENIC PEPTIDES, AND USES THEREOF” (TScan Therapeutics, Inc., priority 2021, published 2023).

This experiment concerns TCR-transduced T cells. As to the kind of experiment: Peptide-pulsed HLA-C*07:02 monoallelic HEK293T granzyme-activated fluorescent reporter cells co-cultured with TCR-transduced T cells. It counts as cell-based, human. As to the method:
Overlapping peptide sequences with a score >2.5 fold were used to predict MHC binding with NetMHC4.0 (available on the World Wide Web at cbs.dtu.dk) and the top predicted MHC binding peptides were synthesized (Genscript). Monoallelic C*07:02 HEK293T reporter cells were pulsed with serial dilutions 0-20,000 ng/ml of each peptide candidate for 1 hour and then co-cultured with TCR-transduced T cells (1-IN-32-39 or HN-32-41) at an E:T ratio of ˜1:1. After 4 hours, the cultures were harvested by pipetting and fluorescence of the reporter was detected using a CytoFLEX™ S instrument (Beckman Coulter). Additionally, monoallelic C*07:02 HEK293 suspension cells were pulsed with serial dilutions 0-500 pM of peptide VBFFFPSL (SEQ ID NO: 1) for 2 hours and then co-cultured with TCR-transduced T cells (HN-32-39 or HN-32-41) at an E:T ratio of 1:1 overnight. Cells were then harvested by pipetting and centrifuged at 2,000 rpm for 2 minutes. The supernatant was collected for IFNγ measurement using a human IFNγ 3rd generation single-plex assay (Protein Simple).

Consider “VRFFFPSL (listed as Homo sapiens) [VBFFFPSL]”, for which the “immunogenicity in peptide validation” value (FIGS. 2D and 2E) was “most favorable immunogenicity”. The “reactivity of the TCR-transduced T cells to peptide-pulsed reporter cells (epitope confirmation)” value (HLA-C*07:02 monoallelic HEK293T, granzyme-activated fluorescent reporter, FIGS. 2D and 2E left) is on record as “minimal MAGEA1 epitope”.
